Type in all cases: cell-based
One assay relates to Bacillus subtilis 168. The experiment in a line: microbe, parasite or virus in culture. The protocol:
(§1) For MIC determination, Staphylococcus aureus ATCC25923, Bacillus subtilis 168, Micrococcus luteus DSM1790, Enterococcus faecalis OG1RF, Enterococcus faecium MCC2763, Escherichia coli DH5α and Pseudomonas aeruginosa PAO1 were used as indicator strains. Nisin and vancomycin were used as positive controls. A dilution series of massatide A, massatide B, vancomycin (16, 8, 4, 2, 1, 0.5, 0.25, 0.125, 0.0625, 0.0313 μg/mL) and sistertide A1, kebanetide A1, kebanetide A2, nisin (64, 32, 16, 8, 4, 2, 1, 0.5, 0.25, 0.125 μg/mL) were prepared in 96-well plate from 1–10th column. The indicator strains were added to the compound-containing well. The indicator strain culture with no antibiotics was prepared in the 11th column. The 12th column was filled with 200 μL empty MHB medium. The 96-well plate was incubated at 37 °C for 20 h (30 °C for M. luteus and B. subtilis). The OD600 was detected on MULTISKAN Sky (Thermo Scientific) and MIC values were determined. The MIC values of clinical isolates were determined by Sichuan Primed Shines Bio-tech Co., Ltd. (China) following similar protocol. Levofloxacin was used as a positive control.

In assay [1] the test system is Enterococcus faecalis OG1RF. The experiment in a line: microbe, parasite or virus in culture. The settings on record: 20 h. Here is the method:
as §1

The test system of assay [2] is Enterococcus faecium MCC2763. The experiment in a line: microbe, parasite or virus in culture. Here is the method: as §1
Assay [3] relates to Micrococcus luteus DSM1790. The experiment in a line: microbe, parasite or virus in culture. Here is the method:
as §1

The test system of assay [4] is Staphylococcus aureus ATCC25923. The experiment in a line: microbe, parasite or virus in culture. The protocol: as §1
The test system of assay [5] is Micrococcus luteus DSM1790. The experiment in a line: Kirby-Bauer assay, zone of inhibition (agar well). The settings on record: M. luteus DSM1790; 10 μL DMSO stock (3.2 or 1.6 mg/mL) in well of soft LB agar, 30 °C, 20 h. Here is the method: The stock solution of massatide A (1) and B (1a) 3.2 mg/mL were prepared in DMSO. 40 μL overnight culture of Micrococcus luteus DSM1790 was added to 20 mL soft Luria-Bertani agar (1% agar), and then poured into a plate. 10 μL tip was used to make two wells on the plate. 10 μL massatide A (1) or B (1a) solution was added in one of the wells, while in the other well, 10 μL DMSO was added as a negative control. The plates were incubated at 30 °C for 20 h to observe the zone of inhibition. Staphylococcus aureus ATCC25923 was also used to observe the inhibition zone using a similar method. The only difference is incubating at 37 °C. Stock solutions of sistertide A1, kebanetide A1 and A2 were 3.2 mg/mL, 1.6 mg/mL and 1.6 mg/mL, respectively. The method to observe the activity of these compounds individually was the same as that of massatide.

Another assay has as its system Escherichia coli DH5α. The settings on record: 20 h. Here is the method: as §1
Assay [6] has as its system Pseudomonas aeruginosa PAO1. Here is the method:
as §1

In brackets after ≈: the same amount, converted by molar mass. Where two headings read alike, the source gives them in different places.

As to `C=C1NC(=O)C(NC(=O)/C(=C/C)NC(=O)[C@H](CCCNC(=N)N)NC(=O)[C@@H](C)NC(=O)[C@@H](NC(=O)[C@H](C)NC(=O)[C@@H](NC(=O)[C@@H](C)NC(=O)[C@H](C)NC(=O)[C@@H]2CSC(C)C(N(C)C)C(=O)N/C(=C\C)C(=O)N[C@@H](Cc3ccc(O)cc3)C(=O)N[C@@H]([C@@H](C)CC)C(=O)N2)C(C)C)[C@@H](C)CC)CSC[C@@H](C(=O)N[C@H](C)C(=O)N[C@@H](C)C(=O)N[C@@H](C)C(=O)N[C@@H](C)C(=O)N[C@H](C)C(=O)N[C@@H](C)C(=O)N[C@H](C(=O)N[C@H](C)C(=O)NCC(=O)N[C@@H](C)C(=O)NC2C(=O)N[C@@H](Cc3ccc(O)cc3)C(=O)N[C@@H](CCC(=O)O)C(=O)N[C@@H](Cc3c[nH]c4ccccc34)C(=O)N[C@@H]([C@@H](C)O)C(=O)N/C=C\SC2C)[C@@H](C)CC)NC(=O)[C@H](CCCCN)NC(=O)[C@H](C(C)C)NC1=O` (stereo partly shown) [Sistertide A1 (2), sistertide A1], the MIC is over 64 µg/mL in the assay with Bacillus subtilis 168 (168, 20 h); over 64 µg/mL in assay [1] (OG1RF); over 64 µg/mL in assay [2] (MCC2763, 20 h); over 64 µg/mL in assay [3] (DSM1790, 20 h); over 64 µg/mL in assay [4] (ATCC25923, 20 h); over 64 µg/mL in the assay on Escherichia coli DH5α (DH5α). This compound also registered an MIC in assay [6] (PAO1, 20 h) of over 64 µg/mL. Moreover, the “inhibitory activity (zone of inhibition)” value in assay [5] is reported as “did not display significant inhibitory activity”.

As for kebanetide A1 [Kebanetide A1 (4)], the MIC was 8 µg/mL with Bacillus subtilis 168 (Bacillus subtilis 168, dilution series in 96-well plate, MHB, 30 °C, 20 h, OD600); 16 µg/mL in assay [1] (Enterococcus faecalis OG1RF, dilution series in 96-well plate, MHB, 37 °C, OD600); 32 µg/mL in assay [2] (Enterococcus faecium MCC2763, dilution series in 96-well plate, MHB, 37 °C, 20 h, OD600); 8 µg/mL in assay [3] (Micrococcus luteus DSM1790, dilution series in 96-well plate, MHB, 30 °C, 20 h, OD600); 64 µg/mL in assay [4] (Staphylococcus aureus ATCC25923, dilution series in 96-well plate, MHB, 37 °C, 20 h, OD600); over 64 µg/mL against Escherichia coli DH5α (Escherichia coli DH5α, dilution series in 96-well plate, MHB, 37 °C, OD600). The MIC in assay [6] (Pseudomonas aeruginosa PAO1, dilution series in 96-well plate, MHB, 37 °C, 20 h, OD600) is over 64 µg/mL. In assay [5], the “inhibitory activity (zone of inhibition)” value is reported as “exhibited growth inhibition”.

`C=C1NC(=O)C(N(C)C)C(C)SC[C@@H](C(=O)N[C@H](C(=O)N[C@@H](C)C(=O)N[C@H](C)C(=O)N[C@@H](C)C(=O)N/C(=C\C)C(=O)N[C@@H](C)C(=O)N[C@H](C)C(=O)N[C@@H](Cc2ccccc2)C(=O)N[C@H](C(=O)N[C@@H](C)C(=O)N[C@H](C)C(=O)N[C@@H](CCC(N)=O)C(=O)N[C@@H](Cc2ccccc2)C(=O)N[C@H](C)C(=O)N[C@@H](C)C(=O)N[C@@H](CCCCN)C(=O)NC2C(=O)N[C@@H](C(C)C)C(=O)N[C@@H](C)C(=O)NCC(=O)NCC(=O)N/C=C\SC2C)C(C)C)[C@@H](C)CC)NC(=O)[C@H](C)NC(=O)[C@@H]2CCCN2C1=O` (stereo partly shown) [kebanetide A2 (5), kebanetide A2]: the MIC is 32 to 64 µg/mL against Bacillus subtilis 168 (168, 20 h); 16 µg/mL (≈ 6.72 µM) in assay [1] (OG1RF); 32 µg/mL (≈ 13.4 µM) in assay [2] (MCC2763, 20 h); 32 µg/mL (≈ 13.4 µM) in assay [3] (DSM1790, 20 h); over 64 µg/mL in assay [4] (ATCC25923, 20 h). Also, in assay [5], the “inhibitory activity (zone of inhibition)” value is on record as “exhibited growth inhibition”.

For the origin of these results see paper PMC11162475, “Rule-based omics mining reveals antimicrobial macrocyclic peptides against drug-resistant clinical isolates” (Nature Communications, 2024).
